Reference: patent US6355799B1, “Substituted benzene compounds, process for their preparation, and herbicidal and defoliant compositions containing them” (ISK Americas Incorporated, priority 1997, dated 2002)

Key:
Assay type in all cases: in vivo
[1] = tested on: redroot pigweed (Amaranthus retroflexus, AMARE); test: Pre-emerge test, greenhouse herbicide activity screening; conditions: phytotoxicity rating 0-100, 14 days after application
Outline: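 Visual ratings on a 0-100 scale (0 no damage, 100 all plants dead) were taken at 14 days after treatment. Rates of 15-1000 g ai/ha in acetone, 187 l/ha, were sprayed onto soil one day after planting (pre-emerge) or onto 2-3 leaf plants with 0.25% v/v surfactant (post-emerge).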

[2] = tested on: barnyardgrass (Echinochloa crus-galli, ECHCG); test: as above; conditions: phytotoxicity rating 0-100, 14 days after application
Outline: (§1)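 Herbicidal damage is scored 0 (none) to 100 (complete plant death) two weeks after a simulated field spray. Rates span 15–1000 g ai/ha, delivered in acetone at 187 l/ha. For post-emergence treatments, plants have 2–3 leaves and the spray carries 0.25% v/v non-ionic surfactant.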

[3] = tested on: green foxtail (Setaria viridis, SETVI); test: as above; conditions: phytotoxicity rating 0-100, 14 days after application
Outline: as §1

[4] = tested on: ivyleaf morningglory (Ipomoea hederacea, IPOHE); test: as above; conditions: phytotoxicity rating 0-100, 14 days after application
Outline: as §1

[5] = tested on: johnsongrass (Sorghum halepense, SORHA); test: as above; conditions: phytotoxicity rating 0-100, 14 days after application
Outline: as §1

[6] = tested on: lambsquarters (Chenopodium album, CHEAL); test: as above; conditions: phytotoxicity rating 0-100, 14 days after application
Outline: as §1

[7] = tested on: large crabgrass (Digitaria sanguinalis, DIGSA); test: as above; conditions: phytotoxicity rating 0-100, 14 days after application
Outline: as §1

[8] = tested on: sicklepod (Cassia obtusifolia, CASOB); test: as above; conditions: phytotoxicity rating 0-100, 14 days after application
Outline: as §1

[9] = tested on: velvetleaf (Abutilon theophrasti, ABUTH); test: as above; conditions: phytotoxicity rating 0-100, 14 days after application
Outline: as §1

[10] = tested on: field corn (Zea mays L., var. Dekalb 535, CORN); test: Pre-emerge test, crop safety; conditions: crop damage rating 0-100, 14 days after application
Outline: (§2)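 Compounds in acetone were track-sprayed at 187 l/ha, 15–1000 g ai/ha, onto sandy loam pots. Pre-emerge seeds were sown one day before spraying, with surface watering afterwards. Post-emerge plants were at the 2–3 leaf stage and sprayed with 0.25% v/v non-ionic surfactant. Injury was rated 0–100 at 14 days.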

[11] = tested on: upland rice (Oryza sp., var. Tebonnet, RICE); test: Pre-emerge test, crop safety; conditions: crop damage rating 0-100, 14 days after application
Outline: as §2

[12] = tested on: green foxtail (Setaria viridis, SETVI); test: Post-emerge test, greenhouse herbicide activity screening; conditions: post-emerge, 14 days after application, rating scale 0-100
Outline: (§3)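 Applied at 15–1000 g ai/ha from acetone in 187 l/ha spray volume. Post-emergence applications included 0.25% v/v non-ionic surfactant and reached plants sown 8–21 days before. Pre-emergence applications were incorporated by surface watering. Efficacy or crop damage was rated on a 0–100 scale after 14 days.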

[13] = tested on: ivyleaf morningglory (Ipomoea hederacea, IPOHE); test: as above; conditions: post-emerge, 14 days after application, rating scale 0-100
Outline: as §3

[14] = tested on: johnsongrass (Sorghum halepense, SORHA); test: as above; conditions: post-emerge, 14 days after application, rating scale 0-100
Outline: as §3

[15] = tested on: lambsquarters (Chenopodium album, CHEAL); test: as above; conditions: post-emerge, 14 days after application, rating scale 0-100
Outline: as §3

[16] = tested on: large crabgrass (Digitaria sanguinalis, DIGSA); test: as above; conditions: post-emerge, 14 days after application, rating scale 0-100
Outline: as §3

[17] = tested on: redroot pigweed (Amaranthus retroflexus, AMARE); test: as above; conditions: post-emerge, 14 days after application
Outline: as §3

[18] = tested on: sicklepod (Cassia obtusifolia, CASOB); test: as above; conditions: post-emerge, 14 days after application, rating scale 0-100
Outline: as §3

[19] = tested on: velvetleaf (Abutilon theophrasti, ABUTH); test: as above; conditions: post-emerge, 14 days after application, rating scale 0-100
Outline: as §3

[20] = tested on: field corn (Zea mays L., var. Dekalb 535, CORN); test: Post-emerge test, crop safety; conditions: post-emerge, 14 days after application, rating scale 0-100
Outline: as §1

[21] = tested on: upland rice (Oryza sp., var. Tebonnet, RICE); test: Post-emerge test, crop safety; conditions: post-emerge, 14 days after application, rating scale 0-100
Outline: as §1

COc1c(Cl)cc(F)c(-n2c(=O)cc(C(F)(F)F)n(C)c2=O)c1NC(=O)OCc1c(Cl)cccc1Cl [4-24]
60: phytotoxicity rating SORHA ([14]; 250 g ai/ha)
35: phytotoxicity rating CORN (crop damage) ([20]; 63 g ai/ha)
90: Pre-emerge Herbicidal Activity SETVI ([3]; 63 g ai/ha)
45: phytotoxicity rating RICE (crop damage) ([21]; 250 g ai/ha)
40: Pre-emerge Herbicidal Activity SORHA ([5]; 250 g ai/ha) | phytotoxicity rating SORHA ([14]; 63 g ai/ha) | phytotoxicity rating DIGSA ([16]; 63 g ai/ha)
100: Pre-emerge Herbicidal Activity AMARE ([1]; 63 g ai/ha) | Pre-emerge Herbicidal Activity AMARE ([1]; 250 g ai/ha) | Pre-emerge Herbicidal Activity SETVI ([3]; 250 g ai/ha) | Pre-emerge Herbicidal Activity CHEAL ([6]; 63 g ai/ha) | Pre-emerge Herbicidal Activity CHEAL ([6]; 250 g ai/ha) | Pre-emerge Herbicidal Activity ABUTH ([9]; 250 g ai/ha) | phytotoxicity rating IPOHE ([13]; 63 g ai/ha) | phytotoxicity rating IPOHE ([13]; 250 g ai/ha) | phytotoxicity rating CHEAL ([15]; 63 g ai/ha) | phytotoxicity rating CHEAL ([15]; 250 g ai/ha) | phytotoxicity rating AMARE ([17]; 63 g ai/ha, rating scale 0-100 (0 no damage, 100 complete death)) | phytotoxicity rating AMARE ([17]; 250 g ai/ha, rating scale 0-100) | phytotoxicity rating CASOB ([18]; 250 g ai/ha) | phytotoxicity rating ABUTH ([19]; 63 g ai/ha) | phytotoxicity rating ABUTH ([19]; 250 g ai/ha)
80: Pre-emerge Herbicidal Activity CASOB ([8]; 250 g ai/ha) | phytotoxicity rating SETVI ([12]; 250 g ai/ha)
0: Pre-emerge Herbicidal Activity CASOB ([8]; 63 g ai/ha) | Pre-emerge Herbicidal Activity CORN ([10]; 63 g ai/ha)
70: Pre-emerge Herbicidal Activity DIGSA ([7]; 250 g ai/ha) | phytotoxicity rating CASOB ([18]; 63 g ai/ha) | phytotoxicity rating CORN (crop damage) ([20]; 250 g ai/ha)
30: Pre-emerge Herbicidal Activity IPOHE ([4]; 250 g ai/ha) | Pre-emerge Herbicidal Activity DIGSA ([7]; 63 g ai/ha)
20: Pre-emerge Herbicidal Activity IPOHE ([4]; 63 g ai/ha) | phytotoxicity rating RICE (crop damage) ([21]; 63 g ai/ha)
10: Pre-emerge Herbicidal Activity ECHCG ([2]; 63 g ai/ha) | Pre-emerge Herbicidal Activity SORHA ([5]; 63 g ai/ha) | Pre-emerge Herbicidal Activity RICE ([11]; 63 g ai/ha)
50: Pre-emerge Herbicidal Activity ECHCG ([2]; 250 g ai/ha) | Pre-emerge Herbicidal Activity ABUTH ([9]; 63 g ai/ha) | Pre-emerge Herbicidal Activity RICE ([11]; 250 g ai/ha) | phytotoxicity rating SETVI ([12]; 63 g ai/ha) | phytotoxicity rating DIGSA ([16]; 250 g ai/ha)
5: Pre-emerge Herbicidal Activity CORN ([10]; 250 g ai/ha)
